From patent publication US12304912B2, “Fused bicyclic RAF inhibitors and methods for use thereof” (Jazz Pharmaceuticals Ireland Limited, priority 2020, dated 2025)
Values after ≈ are worked out from the molar mass of the structure shown. Like-named read-outs stand apart in the source and are kept apart here.

Legend:
[1] = FeSSIF solubility assay; type: physicochemical; details: pH 5 acetate buffer, 37° C.; for solubility thermodynamic at 24 h: fed state simulated intestinal fluid (FeSSIF), thermodynamic from solid
Procedure, shortened: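 FeSSIF (pH 5 acetate buffer, 1 mL) was added to 1.0 mg solid compound and shaken at 650 rpm and 37 °C for 24 h. After filtration, dissolved compound was quantified by LC-UV against a 250 μM calibration standard.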

[2] = test system: HCT-116 cells; experiment: HCT-116 CellTiter-Glo 3D cell proliferation assay; type: cell-based; details: Homo sapiens
Experimental: HCT-116 CellTiter-Glo 3D Cell Proliferation Assay
The human HCT-116 colorectal carcinoma cell line (ATCC CCL-247) endogenously expresses the KRAS^G13D mutation, which leads to enhanced survival and proliferative signaling. […] On the first day, HCT-116 cells were harvested, resuspended in growth medium (McCoys5A with Glutamax (Life Technologies 36600021) with 10% heat-inactivated fetal bovine serum (Sigma F9665)), and counted. Cells were plated in 100 μl per well in each well of a Corning 7007 96-well clear round bottom Ultra-Low Attachment plate (VWR 444-1020) to a final density of 1000 cells per well. Cells were seeded for pre- and post-treatment readouts. The cells were then incubated at 37° C. and 5% CO2 for 3 days (72 hours) to allow spheroid formation. After 72 hours, the plate seeded for a pre-treatment read was removed from the incubator to allow equilibration to room temperature for 30 minutes, before CellTitre-Glo® reagent was added to each well. The plates were incubated at room temperature for 5 minutes shaking at 300 rpm, followed by an incubation of 25 minutes on the benchtop before being read on the Envision reader (Perkin Elmer) as described below. On the same day, the cells plated for the post-treatment readout were dosed with compounds to produce a 9-point dose response, where the top concentration was 15 μM and following concentrations were at 1/2 log dilution intervals. These cells were subsequently incubated at 37° C. and 5% CO2 for another 4 days (96 hours). After 4 days, the plate was removed from the incubator to allow equilibration to room temperature for 30 minutes and treated with CellTitre Glo® reagent as stated above. […] The CellTitre Glo® reagent lyses the cells and contains luciferin and a luciferase (Ultra-Glo™ Recombinant Luciferase), which in the presence of ATP and oxygen can produce bioluminescence from luciferin. Therefore, plates were read on an EnVision reader (Perkin Elmer) and luminescence signals were recorded. Cell proliferation was determined on 4 days after dosing relative to the pre-treatment read. All data were analyzed using the Dotmatics or GraphPad Prism software packages. Inhibition of proliferation was assessed by determination of the GI50 value, which was defined as the concentration of compound required to decrease the level of cell proliferation by 50% when compared to DMSO control.

[3] = HCT-116, HCT116 cells, 3D proliferation, read-out: 3D HCT116 pGI50 (converted)

SMILES | solubility thermodynamic at 24 h ([1]; read-out: Sol (FESSIF)) [µg/mL] | FESSIF Sol ([1]; 24 h) [mg/L] | GI50 [2, 3] [nM] | solubility thermodynamic at 24 h ([1]; read-out: FESSIF Sol) [µg/mL] | GI50 ([2]; HCT-116, read-out: 3D HCT116 pGI50 (converted)) [nM]
O=C1CCc2c(Oc3ccc4c(c3)CC(c3nc(-c5ccnc(C(F)(F)F)c5)c[nH]3)CO4)ccnc2N1 (centres unmarked) [Compound 8, 5-[3-[4-[2-(trifluoromethyl)-4-pyridyl]-1H-imidazol-2-yl]chroman-6-yl]oxy-3,4-dihydro-1H-1,8-naphthyridin-2-one] | 18.5 (≈ 36.5 µM) | 18.5 | 138 | – | –
O=C1CCc2c(Oc3ccc4c(c3)CC(c3nc(-c5ccnc(C(F)F)c5)c[nH]3)CO4)ccnc2N1 (centres unmarked) [Compound 101, 5-[3-[4-[2-(difluoromethyl)-4-pyridyl]-1H-imidazol-2-yl]chroman-6-yl]oxy-3,4-dihydro-1H-1,8-naphthyridin-2-one] | – | – | 85.1 | 5.7 (≈ 11.6 µM) | –
CC1CC1C(=O)Nc1cc(Oc2ccc3c(c2)CC(c2nc(-c4ccccc4)c[nH]2)CO3)ccn1 (centres unmarked) [Compound 157] | – | – | 263 | 116 (≈ 249 µM) | –
O=C1CCc2c(Oc3ccc4c(c3)CN(c3nc5cc(C(F)(F)F)ccc5[nH]3)CC4)ccnc2N1 [Compound 160] | – | – | 617 | 3 (≈ 6.26 µM) | –
O=C1CCc2c(Oc3ccc4c(c3)CC(c3nc(C5CCOCC5)c[nH]3)CO4)ccnc2N1 (centres unmarked) [Compound 132, 5-[3-(4-tetrahydropyran-4-yl-1H-imidazol-2-yl)chroman-6-yl]oxy-3,4-dihydro-1H-1,8-naphthyridin-2-one] | – | – | 661 | 41.9 (≈ 93.8 µM) | –
CC(C)CCc1c[nH]c(C2COc3ccc(Oc4ccnc5c4CCC(=O)N5)cc3C2)n1 (centres unmarked) [Compound 116] | – | – | 66.1 | 311 (≈ 720 µM) | –
O=C(CN1CC(O)C1)Nc1cc(Oc2ccc3c(c2)CC(c2nc(-c4ccccc4)c[nH]2)CO3)ccn1 (centres unmarked) [Compound 153] | – | – | 427 | 336 (≈ 675 µM) | –
Cn1nc(C2CC2)cc1-c1c[nH]c(C2COc3ccc(Oc4ccnc5c4CCC(=O)N5)cc3C2)n1 (centres unmarked) [Compound 125, 5-[3-[4-(5-cyclopropyl-2-methyl-pyrazol-3-yl)-1H-imidazol-2-yl]chroman-6-yl]oxy-3,4-dihydro-1H-1,8-naphthyridin-2-one] | – | – | 1120 | 22 (≈ 45.6 µM) | –
COc1csc(-c2c[nH]c(C3COc4ccc(Oc5ccnc6c5CCC(=O)N6)cc4C3)n2)c1 (centres unmarked) [Compound 122, 5-[3-[5-(4-methoxy-2-thienyl)-1H-imidazol-2-yl]chroman-6-yl]oxy-3,4-dihydro-1H-1,8-naphthyridin-2-one] | – | – | 182 | 124 (≈ 260 µM) | –
Cc1cc(-c2c[nH]c(C3COc4ccc(Oc5ccnc6c5CCC(=O)N6)cc4C3)n2)n(C)n1 (centres unmarked) [Compound 106, 5-[3-[4-(2,5-dimethylpyrazol-3-yl)-1H-imidazol-2-yl]chroman-6-yl]oxy-3,4-dihydro-1H-1,8-naphthyridin-2-one] | – | – | 437 | 28.1 (≈ 61.6 µM) | –
O=C1CCc2c(Oc3ccc4c(c3)CC(c3nc(-c5cncc(C(F)(F)F)c5)c[nH]3)CO4)ccnc2N1 (centres unmarked) [Compound 103, 5-[3-[4-[5-(trifluoromethyl)-3-pyridyl]-1H-imidazol-2-yl]chroman-6-yl]oxy-3,4-dihydro-1H-1,8-naphthyridin-2-one] | – | – | 288 | 5.2 (≈ 10.2 µM) | –
O=C1CCc2c(Oc3ccc4c(c3)CC(c3nc(-c5cncc(C(F)F)c5)c[nH]3)CO4)ccnc2N1 (centres unmarked) [Compound 105, 5-[3-[4-[5-(difluoromethyl)-3-pyridyl]-1H-imidazol-2-yl]chroman-6-yl]oxy-3,4-dihydro-1H-1,8-naphthyridin-2-one] | – | – | 245 | 8.6 (≈ 17.6 µM) | –
CC(=O)Nc1cc(Oc2ccc3c(c2)CC(c2nc(-c4ccccc4)c[nH]2)CO3)ccn1 (centres unmarked) [Compound 156, N-[4-[3-(4-phenyl-1H-imidazol-2-yl)chroman-6-yl]oxy-2-pyridyl]acetamide] | – | – | 89.1 | 296 (≈ 695 µM) | –
CCn1nc(C)cc1-c1c[nH]c(C2COc3ccc(Oc4ccnc5c4CCC(=O)N5)cc3C2)n1 (centres unmarked) [Compound 124, 5-[3-[4-(2-ethyl-5-methyl-pyrazol-3-yl)-1H-imidazol-2-yl]chroman-6-yl]oxy-3,4-dihydro-1H-1,8-naphthyridin-2-one] | – | – | 724 | 3 (≈ 6.38 µM) | –
CN1CCN(CC(=O)Nc2cc(Oc3ccc4c(c3)CC(c3nc(-c5ccccc5)c[nH]3)CO4)ccn2)CC1 (centres unmarked) [Compound 146, 2-(4-methylpiperazin-1-yl)-N-[4-[3-(4-phenyl-1H-imidazol-2-yl)chroman-6-yl]oxy-2-pyridyl]acetamide] | – | – | 380 | 404 (≈ 770 µM) | –
CC(C)(C)CCc1c[nH]c(C2COc3ccc(Oc4ccnc5c4CCC(=O)N5)cc3C2)n1 (centres unmarked) [Compound 115, 5-[3-[4-(3,3-dimethylbutyl)-1H-imidazol-2-yl]chroman-6-yl]oxy-3,4-dihydro-1H-1,8-naphthyridin-2-one] | – | – | 67.6 | 129 (≈ 289 µM) | –
O=C(Cn1cncn1)Nc1cc(Oc2ccc3c(c2)CC(c2nc(-c4ccccc4)c[nH]2)CO3)ccn1 (centres unmarked) [Compound 154] | – | – | 61.7 | 171 (≈ 346 µM) | –
Cc1ccc(-c2c[nH]c(C3COc4ccc(Oc5ccnc6c5CCC(=O)N6)cc4C3)n2)s1 (centres unmarked) [Compound 110] | – | – | 70.8 | 8.5 (≈ 18.5 µM) | –
O=C(Nc1cc(Oc2ccc3c(c2)CC(c2nc(-c4ccccc4)c[nH]2)CO3)ccn1)C1CC1 (racemic) [Compound 136] | – | – | 47.9 | 17.1 (≈ 37.8 µM) | –
COc1ccsc1-c1c[nH]c(C2COc3ccc(Oc4ccnc5c4CCC(=O)N5)cc3C2)n1 (centres unmarked) [Compound 123] | – | – | 40.7 | 156 (≈ 330 µM) | –
O=C(Nc1nccc(Oc2ccc3c(c2)CC(c2nc(-c4ccccc4)c[nH]2)CO3)n1)C1CC1 (centres unmarked) [Compound 148, N-[4-[3-(4-phenyl-1H-imidazol-2-yl)chroman-6-yl]oxypyrimidin-2-yl]cyclopropanecarboxamide] | – | – | 490 | 104 (≈ 230 µM) | –
O=C(CN1CCCC1)Nc1cc(Oc2ccc3c(c2)CC(c2nc(-c4ccccc4)c[nH]2)CO3)ccn1 (centres unmarked) [Compound 152] | – | – | 832 | 997 (≈ 2010 µM) | –
CCc1cc(-c2c[nH]c(C3COc4ccc(Oc5ccnc6c5CCC(=O)N6)cc4C3)n2)n(C)n1 (centres unmarked) [Compound 111] | – | – | 316 | 70 (≈ 149 µM) | –
Cc1c[nH]c(-c2cc(Oc3ccc4c(c3)CC(c3nc(-c5ccccc5)c[nH]3)CO4)ccn2)n1 (centres unmarked) [Compound 143, 2-(4-methyl-1H-imidazol-2-yl)-4-[3-(4-phenyl-1H-imidazol-2-yl)chroman-6-yl]oxy-pyridine] | – | – | 741 | 44.7 (≈ 99.4 µM) | –
O=C(Nc1cc(Oc2ccc3c(c2)CC(c2nc(-c4ccc(F)cc4)c[nH]2)CO3)ccn1)C1CC1 (centres unmarked) [Compound 155, N-[4-[3-[4-(4-fluorophenyl)-1H-imidazol-2-yl]chroman-6-yl]oxy-2-pyridyl]cyclopropanecarboxamide] | – | – | 100 | 124 (≈ 263 µM) | –
O=C(Nc1cc(Oc2ccc3c(c2)CC(c2nc(-c4ccccc4)c[nH]2)CO3)ncn1)C1CC1 (centres unmarked) [Compound 151, N-[6-[3-(4-phenyl-1H-imidazol-2-yl)chroman-6-yl]oxypyrimidin-4-yl]cyclopropanecarboxamide] | – | – | – | 86.6 (≈ 191 µM) | 380
